The values below come from article PMC5874704, “In Silico Study, Synthesis, and Cytotoxic Activities of Porphyrin Derivatives” (Pharmaceuticals, 2018).

Series [1] deals with HeLa cell line. The series can be described thus: MTT cytotoxicity test, HeLa. The format is cell-based. The following applies: Homo sapiens, 24 h treatment, triplicate, read-out: IC50 (μM) ± SD HeLa. How it is done:
(§1) The human epithelioid cervix carcinoma cell line (HeLa), human ductal breast epithelial tumor cell line (T47D), Michigan Cancer Foundation-7 cell line (MCF-7), human colon carcinoma cell line (WIDR), hepatoblastoma-derived cell line (HepG2), and Vero cell line (derived from kidney of African green monkey) were purchased from ATCC by the Faculty of Medicine Gadjah Mada University. The cell lines were cultured in Dulbecco’s Modified Eagle Medium (DMEM, Gibco), except for Vero cell line, which was cultured in Medium-199 (M-199, Gibco). Other chemicals, i.e., potassium dihydrogen phosphate, sodium chloride, potassium chloride, sodium hydrogen phosphate, dimethyl sulfoxide, sodium dodecyl sulphate, HEPES, sodium bicarbonate, and 3-(4,5-dimetiltiazol-2-il)-2,5-difeniltetrazolium bromide (MTT) were purchased from Sigma-Aldrich. Fetal bovine serum, trypsin-EDTA 0.25%, and penicillin-streptomycin were purchased from Gibco, whereas Amphotericin B was purchased from Caisson. Phosphate-buffered saline (PBS) was obtained by mixing 0.2 g of KH2PO4, 8 g of NaCl, 0.2 g of KCl, 1.15 g of Na2HPO4, and 1 L of distilled water.
(§2) Confluent cells in the Petri dish was harvested by removing the growth media in Petri dish and adding 1 mL of trypsin-EDTA […]. Then the cells was incubated at incubator 37 °C, 5% CO2 for about three minutes. The suspension of cells was put in centrifuge tube, 2 mL of growth media was added with 7 mL of PBS. The mixture was centrifuged for 10 min at 1200 rpm. The supernatant was separated and 2–3 mL of growth media was added to the pellet cell for counting cell. The cell suspense was cultured in 96-well plates (10,000 cells/well). After 24 h, the porphyrin derivative compounds with series concentration were added to treat the cell cultures for another 24 h. The cells were treated by MTT solution for four hours at incubator (37 °C, 5% CO2) and the reaction was stopped by stopper solution (SDS 10% HCl). The plate was incubated at room temperature in dark condition for 24 h. The living cells were counted by reading the absorbance at 595 nm. The corresponding IC50 values were calculated using non-linear regression analysis (GraphPad Prism 7.0.3). Each test was run in triplicate.
(Tetrazolium assays rely on reduction of a dye to a coloured formazan, in cell work by metabolically active cells.)

The test system of series [2] is WIDR cell line. As to the kind of experiment: MTT cytotoxicity test, WIDR. The settings on record: Homo sapiens, 24 h treatment, triplicate, read-out: IC50 (μM) ± SD WIDR. The format is cell-based. How it is done: as §1, §2
Series [3] concerns HepG2 cell line. The series can be described thus: MTT cytotoxicity test, HepG2. The following applies: Homo sapiens, 24 h treatment, triplicate, read-out: IC50 (μM) ± SD HepG2. The format is cell-based. On the procedure:
as §1, §2

For series [4], the system named is T47D cell line. As to the kind of experiment: MTT cytotoxicity test, T47D. The format is cell-based. The following applies: Homo sapiens, 24 h treatment, triplicate, read-out: IC50 (μM) ± SD T47D. How it is done: as §1, §2
The test system of series [5] is MCF-7 cell line. The series can be described thus: MTT cytotoxicity test, MCF-7. The format is cell-based. The settings on record: Homo sapiens, MCF7, 24 h treatment, triplicate, read-out: IC50 (μM) ± SD MCF-7. How it is done: as §1, §2
Series [6] concerns Vero cell line. The series can be described thus: MTT cytotoxicity test, Vero (normal cells). The format is cell-based, African green monkey. The following applies: Chlorocebus sabaeus, 24 h treatment, triplicate, read-out: IC50 (μM) ± SD Vero. How it is done: as §1, §2

Consider `CCOC(=O)COc1ccc(-c2c3nc(c(-c4cnn(C)c4)c4ccc([nH]4)c(-c4ccc(OCC(=O)OCC)c(OCC(=O)OCC)c4)c4nc(c(-c5cnn(C)c5)c5ccc2[nH]5)C=C4)C=C3)cc1OCC(=O)OCC` [DBECPDPzP, 5,15-di-[bis(3,4-ethylcarboxymethylenoxy)phenyl]-10,20-di-(methylpyrazole-4-yl)porphyrin], for which the IC50 (usually the concentration that gives 50% inhibition) in series [1] is 941.9 ± 1.2 µM; in series [2], 34.1 ± 1.1 µM; in series [3] it was 31.7 ± 1.2 µM; in series [4] it was 177.8 ± 1.2 µM; in series [5], 64.2 ± 1.1 µM; in series [6] it was 363.4 ± 1.1 µM.
Consider `CCOC(=O)COc1ccc(-c2c3nc(c(-c4ccc(C)cc4)c4ccc([nH]4)c(-c4ccc(OCC(=O)OCC)c(OCC(=O)OCC)c4)c4nc(c(-c5ccc(C)cc5)c5ccc2[nH]5)C=C4)C=C3)cc1OCC(=O)OCC` [DBECPDTP, 5,15-di-[bis(3,4-ethylcarboxymethylenoxy)phenyl]-10,20-di(p-tolyl)porphyrin], for which the IC50 worked out at 201.7 ± 1.3 µM in series [1]; 33.5 ± 1.1 µM in series [2]; 37.2 ± 1.1 µM in series [3]; 166.7 ± 1.3 µM in series [4]; 42.1 ± 1.1 µM in series [5]; 372.2 ± 1.1 µM in series [6].
Turning to `Nc1ccc(-c2c3nc(c(-c4ccc(N)cc4)c4ccc([nH]4)c(-c4ccc(N)cc4)c4nc(c(-c5ccc(N)cc5)c5ccc2[nH]5)C=C4)C=C3)cc1` [TAPP, 5,10,15,20-tetrakis(p-aminophenyl)porphyrin], the IC50 in series [1] was 1007 ± 1.1 µM; in series [2], 205.1 ± 1.2 µM; in series [3] it was 36 ± 1.2 µM; in series [4] it was 332.6 ± 1.2 µM; in series [5] it was 262.2 ± 1.3 µM; in series [6] it was 2264 ± 1.2 µM.
Take `Brc1ccc(-c2c3nc(c(-c4ccc(Br)cc4)c4ccc([nH]4)c(-c4ccc(Br)cc4)c4nc(c(-c5ccc(Br)cc5)c5ccc2[nH]5)C=C4)C=C3)cc1` [TBrPP, 5,10,15,20-tetrakis(p-bromophenyl)porphyrin]: the melting point (as a rule, the temperature of the solid-liquid transition) is over 300 °C. The IC50 in series [1] was determined as 595.6 ± 1.3 µM. The IC50 in series [2] was 772.7 ± 1.3 µM. In addition, the IC50 in series [3] stood at 882.7 ± 1.2 µM. Besides, the concentration for half-maximal inhibition (IC50) in series [4] was determined as 443.9 ± 1.1 µM. The IC50 in series [5] is 870.6 ± 1.3 µM. Besides, the IC50 in series [6] is 1176 ± 1.1 µM.
As for `Cc1ccc(-c2c3nc(c(-c4ccc(C)cc4)c4ccc([nH]4)c(-c4ccc(C)cc4)c4nc(c(-c5ccc(C)cc5)c5ccc2[nH]5)C=C4)C=C3)cc1` [TTP, 5,10,15,20-tetrakis(p-tolyl)porphyrin], the melting point is over 300 °C. Further, the IC50 in series [1] was found to be 714.6 ± 1.1 µM. Besides, the half-inhibitory concentration (IC50) in series [2] was determined as 969.8 ± 1.2 µM. In addition, the IC50 in series [3] was determined as 1120 ± 1.3 µM. The IC50 in series [4] was determined as 1241 ± 1.2 µM. The half-inhibitory concentration (IC50) in series [5] was determined as 1305 ± 1.3 µM. In addition, the 50% inhibitory concentration (IC50) in series [6] was 15600 µM.
As to `Cc1ccc(-c2c3nc(c(-c4ccc(C)cc4)c4ccc([nH]4)c(-c4ccc(N)cc4)c4nc(c(-c5ccc(C)cc5)c5ccc2[nH]5)C=C4)C=C3)cc1` [TrTMAP, 5,10,15-tris(tolyl)-20-mono(p-aminophenyl)porphyrin], the melting point was over 300 °C. The concentration for half-maximal inhibition (IC50) in series [1] came out at 593.1 ± 1.2 µM. Besides, the half-maximal inhibitory concentration (IC50) in series [2] stood at 835.4 ± 1.3 µM. Besides, the IC50 in series [3] was 107 ± 1.3 µM. For the same compound, the concentration for half-maximal inhibition (IC50) in series [4] was 1099 ± 1.3 µM. Also, the IC50 in series [5] amounted to 328.4 ± 1.4 µM. Besides, the IC50 in series [6] was 4784 ± 1.2 µM.
The compound `Cc1ccc(-c2c3nc(c(-c4ccc(C)cc4)c4ccc([nH]4)c(-c4ccc([N+](=O)[O-])cc4)c4nc(c(-c5ccc(C)cc5)c5ccc2[nH]5)C=C4)C=C3)cc1` [TrTMNP, 5,10,15-tris(tolyl)-20-mono(p-nitrophenyl)porphyrin] registered a melting point of over 300 °C. Also, the half-maximal inhibitory concentration (IC50) in series [1] is 226.1 ± 1.1 µM. Further, the IC50 in series [2] amounted to 897.5 ± 1.1 µM. Moreover, the half-maximal inhibitory concentration (IC50) in series [3] stood at 146.6 ± 1.2 µM. Also, the concentration for half-maximal inhibition (IC50) in series [4] was determined as 5372 ± 1.4 µM. For the same compound, the half-maximal inhibitory concentration (IC50) in series [5] is 505.2 ± 1.2 µM. The half-maximal inhibitory concentration (IC50) in series [6] was 10100 µM.
Regarding `CCOC(=O)COc1ccc(-c2c3nc(c(-c4ccc(OCC(=O)OCC)c(OCC(=O)OCC)c4)c4ccc([nH]4)c(-c4cnn(C)c4)c4nc(c(-c5cnn(C)c5)c5ccc2[nH]5)C=C4)C=C3)cc1OCC(=O)OCC` [cDBECPDPzP, 5,10-di-[bis(3,4-ethylcarboxymethylenoxy)phenyl]-15,20-di-(methylpyrazole-4-yl)porphyrin], the IC50 in series [1] was determined as 1083 ± 1.2 µM; in series [2], 28.9 ± 1.1 µM; in series [3] it was 28.6 ± 1.2 µM; in series [4], 164.5 ± 1.2 µM; in series [5], 47.9 ± 1.1 µM; in series [6], 548.8 ± 1.2 µM.
